# Assay results reported in US7414041B2 (Trustees Of Tufts College, priority 1991, dated 2008).
# Read-outs that look alike come from different tables or passages of the source.
# Assays:
# [1] = target: T1, TET proteins responsible for tetracycline efflux (Class B tetracycline resistance determinant, strain D1-209) (Escherichia coli, UniProt P02980); assay: biochemical; design: species or system E. coli
# T1 construct: Everted vesicles, to which the TET proteins responsible for tetracycline efflux are attached; endogenous in cells; host or cells: E. coli strain D1-209 (everted membrane vesicles)
# [2] = system: E. coli Tc^s (MI 300-225); assay: susceptibility testing MIC/MLC, drug alone; format: cell-based; settings: Tc^s
# [3] = system: E. coli Class A Tc^r (DI-299); format: cell-based
# [4] = system: E. coli Class β Tc^r (DI-209); format: cell-based
# S. aureus Tc^s (RN450) = assay: susceptibility testing MIC/MLC, drug alone; format: cell-based; settings: for MLC: kills 99.9%
# S. aureus Tc^r (RN4250) = format: cell-based
# [5] = system: E. faecalis Tc^s (ATCC9790r); assay: susceptibility testing MIC/MLC, drug alone; format: cell-based
# [6] = system: E. faecalis Tc^r (L) (ATCC9790r/Tet L); format: cell-based; settings: for MIC: Tc^r (L); for MLC: E. faecalis Tet L
# [7] = system: E. faecalis Tc^r (M) (ATCC9790r/Tet M); format: cell-based
# E. coli D1-299 (Tet A) = format: cell-based;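 further: E. coli at roughly 5×10^5 cells/ml in L broth, analog and doxycycline alone or mixed in two-fold dilutions from 50 to under 1 µg/ml, 18 h at 37 °C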
# S. aureus 4250 (Tet K) = assay: MIC/MLC chart, analog with and without doxycycline; format: cell-based
# E. faecalis 158 (Tet L) = assay: MIC/MLC chart, analog with and without doxycycline; format: cell-based
# E. faecalis 211 (Tet M) = assay: MIC/MLC chart, analog with and without doxycycline; format: cell-based;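 further: broth checkerboard of two-fold drug dilutions, alone and mixed with doxycycline, bacteria near 5×10^5 cells/ml, 18 h incubation at 37 °C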
# E. faecalis (Tet M) = settings: E. faecalis (Class M)
# [8] = doxycycline alone 1.56 μg/ml (Doxy Control)
# [9] = doxycycline alone 3.12 μg/ml (Doxy Control)
# [10] = doxycycline alone 6.25 μg/ml (Doxy Control)
# [11] = doxycycline alone 12.5 μg/ml (Doxy Control)
# [12] = uptake at 2.5 minutes, about 4 μM 3H-tetracycline, read-out: IC50
# T1 sequence (P02980 whole entry): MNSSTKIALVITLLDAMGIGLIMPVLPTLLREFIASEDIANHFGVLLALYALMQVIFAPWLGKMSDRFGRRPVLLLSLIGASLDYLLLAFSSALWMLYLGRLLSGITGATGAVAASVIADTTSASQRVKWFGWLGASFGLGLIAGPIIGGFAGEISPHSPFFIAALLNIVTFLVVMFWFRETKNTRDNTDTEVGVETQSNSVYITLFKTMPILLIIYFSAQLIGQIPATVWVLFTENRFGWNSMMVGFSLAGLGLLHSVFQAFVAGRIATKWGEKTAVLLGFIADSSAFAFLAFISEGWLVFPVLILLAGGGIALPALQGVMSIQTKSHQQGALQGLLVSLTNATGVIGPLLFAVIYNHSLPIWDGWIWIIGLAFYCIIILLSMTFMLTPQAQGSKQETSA
molecule,measurement,setting,value
CN(C)[C@@H]1C(O)=C(C(N)=O)C(=O)C2(O)C(O)=C3C(=O)c4c(O)cccc4C(CSC4CCCC4)C3[C@H](OC(=O)C3CCCCC3)C12 (some centres unmarked) [Cmpd 9],IC50,[1],> 30 µM
"CN(C)c1ccc(O)c2c1C[C@H]1C[C@H]3[C@H](N(C)C)C(=O)C(C(N)=O)=C(O)[C@@]3(O)C(=O)C1=C2O [Minocycline, reference compound]",MIC,[2]; 1st column,<4 µg
same,MIC,[2]; 2nd column,<4 µg
same,MIC,[3]; 1st column,<4 µg
same,MIC,[3]; 2nd column,20 µg
same,MIC,[4]; 1st column,6 ± 2 µg
same,MIC,[4]; 2nd column,30 ± 10 µg
same,MIC,S. aureus Tc^s (RN450),<0.25 µg
same,MLC,S. aureus Tc^s (RN450),8 µg
same,MIC,S. aureus Tc^r (RN4250); Tc^r RN4250,<0.25 µg
same,MLC,"S. aureus Tc^r (RN4250); Tc^r RN4250, kills 99.9%",>80 µg
same,MIC,[5]; 1st column,<0.26 µg
same,MIC,[5]; 2nd column,>40 µg
same,MIC,[6]; 1st column,<0.26 µg
same,MIC,[6]; 2nd column,>80 µg
same,MIC,[7]; 1st column,10 µg
same,MIC,[7]; 2nd column,>80 µg
CC(C)SCC1c2cccc(O)c2C(=O)C2=C(O)C3(O)C(=O)C(C(N)=O)=C(O)C(N(C)C)C3C(O)C21 (centres unmarked) [Isopropyl],MIC,[2]; 1st column,22 ± 2 µg
same,MIC,[2]; 2nd column,60 µg
same,MIC,[3]; 1st column,46 ± 6 µg
same,MIC,[3]; 2nd column,60 µg
same,MIC,[4]; 1st column,35 ± 6 µg
same,MIC,[4]; 2nd column,46 ± 16 µg
same,MIC,S. aureus Tc^s (RN450),0.5 ± 0.25 µg
same,MLC,S. aureus Tc^s (RN450),6 ± 2 µg
same,MIC,S. aureus Tc^r (RN4250); Tc^r RN4250,4.5 ± 0.5 µg
same,MLC,"S. aureus Tc^r (RN4250); Tc^r RN4250, kills 99.9%",8 µg
same,MIC,[5]; 1st column,3 ± 1 µg
same,MIC,[5]; 2nd column,20 ± 0.26 µg
same,MIC,[6]; 1st column,3 ± 1 µg
same,MIC,[6]; 2nd column,100 ± 0.25 µg
same,MIC,[7]; 2nd column,>200 µg
"CN(C)C1C(O)=C(C(N)=O)C(=O)C2(O)C(O)=C3C(=O)c4c(O)cccc4C(C)(O)C3CC12 (centres unmarked) [Tetracycline, 4-(Dimethylamino)-1,4,4a,5,5a,6-11,12a-octahydro-3,6,10,12,12a-pentahydroxy-6-methyl-1-11-dioxo-2-naphth acenecarboxamide, reference compound]",MIC,[2]; 1st column,0.6 ± 0.26 µg
same,MIC,[2]; 2nd column,40 ± 0.26 µg
same,MIC,[3]; 1st column,160 ± 0.26 µg
same,MIC,[3]; 2nd column,200 µg
same,MIC,[4]; 1st column,>200 µg
same,MIC,[4]; 2nd column,>200 µg
same,MIC,S. aureus Tc^s (RN450),0.75 ± 0.25 µg
same,MLC,S. aureus Tc^s (RN450),>6 µg
same,MIC,S. aureus Tc^r (RN4250); Tc^r RN4250,90 ± 10 µg
same,MLC,"S. aureus Tc^r (RN4250); Tc^r RN4250, kills 99.9%",100 µg
same,MIC,[5]; 1st column,0.26 µg
same,MIC,[5]; 2nd column,>200 µg
same,MIC,[6]; 1st column,90 ± 10 µg
same,MIC,[6]; 2nd column,>300 µg
same,MIC,[7]; 1st column,100 µg
same,MIC,[7]; 2nd column,300 µg
"C[C@H]1c2cccc(O)c2C(O)=C2C(=O)[C@]3(O)C(O)=C(C(N)=O)C(=O)[C@@H](N(C)C)[C@@H]3[C@@H](O)[C@@H]21 [Doxy, Doxycycline, reference compound]",MIC/MLC chart symbol,"E. coli D1-299 (Tet A); Chart 6A, Doxy Control (doxycycline alone), μg/ml = number in line above",◯ and +
same,growth / no growth (MIC) / killing (MLC) symbol,E. coli D1-299 (Tet A); doxy alone 1.56 μg/ml,+
same,growth / no growth (MIC) / killing (MLC) symbol,E. coli D1-299 (Tet A); doxy alone 3.12 μg/ml,+
same,growth / no growth (MIC) / killing (MLC) symbol,E. coli D1-299 (Tet A); doxy alone 6.25 μg/ml,+
same,growth / no growth (MIC) / killing (MLC) symbol,E. coli D1-299 (Tet A); doxy alone 12.5 μg/ml,+
same,growth / no growth (MIC) / killing (MLC) symbol,E. coli D1-299 (Tet A); doxy alone 25 μg/ml,◯
same,MIC/MLC chart: growth or killing,E. coli D1-299 (Tet A); [8],+
same,MIC/MLC chart: growth or killing,E. coli D1-299 (Tet A); [9],+
same,MIC/MLC chart: growth or killing,E. coli D1-299 (Tet A); [10],+
same,MIC/MLC chart: growth or killing,E. coli D1-299 (Tet A); [11],+
same,MIC/MLC chart: growth or killing,E. coli D1-299 (Tet A); doxycycline alone 25.0 μg/ml (Doxy Control),+
same,MIC/MLC chart symbol,"S. aureus 4250 (Tet K); Chart 6B, Doxy Control (doxycycline alone), μg/ml = number in line above",+
same,growth / no growth (MIC) / killing (MLC) symbol,S. aureus 4250 (Tet K); doxy alone 1.56 μg/ml,+
same,growth / no growth (MIC) / killing (MLC) symbol,S. aureus 4250 (Tet K); doxy alone 3.12 μg/ml,+
same,growth / no growth (MIC) / killing (MLC) symbol,S. aureus 4250 (Tet K); doxy alone 6.25 μg/ml,+
same,growth / no growth (MIC) / killing (MLC) symbol,S. aureus 4250 (Tet K); doxy alone 12.5 μg/ml,+
same,MIC/MLC chart: growth or killing,S. aureus 4250 (Tet K); [8],+
same,MIC/MLC chart: growth or killing,S. aureus 4250 (Tet K); [9],+
same,MIC/MLC chart: growth or killing,S. aureus 4250 (Tet K); [10],+
same,MIC/MLC chart: growth or killing,S. aureus 4250 (Tet K); [11],◯
same,MIC/MLC chart symbol,"E. faecalis 158 (Tet L); Chart 6C, Doxy Control (doxycycline alone), μg/ml = number in line above",+
same,growth / no growth (MIC) / killing (MLC) symbol,E. faecalis 158 (Tet L); doxy alone 1.56 μg/ml,+
same,growth / no growth (MIC) / killing (MLC) symbol,E. faecalis 158 (Tet L); doxy alone 3.12 μg/ml,+
same,growth / no growth (MIC) / killing (MLC) symbol,E. faecalis 158 (Tet L); doxy alone 6.25 μg/ml,+
same,growth / no growth (MIC) / killing (MLC) symbol,E. faecalis 158 (Tet L); doxy alone 12.5 μg/ml,↓
same,MIC/MLC chart: growth or killing,E. faecalis 158 (Tet L); [8],+
same,MIC/MLC chart: growth or killing,E. faecalis 158 (Tet L); [9],+
same,MIC/MLC chart: growth or killing,E. faecalis 158 (Tet L); [10],+
same,MIC/MLC chart symbol,"E. faecalis 211 (Tet M); Chart 6D, Doxy Control (doxycycline alone), μg/ml = number in line above",↓ and +
same,growth / no growth (MIC) / killing (MLC) symbol,E. faecalis 211 (Tet M); doxy alone 1.56 μg/ml,+
same,growth / no growth (MIC) / killing (MLC) symbol,E. faecalis 211 (Tet M); doxy alone 3.12 μg/ml,+
same,growth / no growth (MIC) / killing (MLC) symbol,E. faecalis 211 (Tet M); doxy alone 6.25 μg/ml,+
same,growth / no growth (MIC) / killing (MLC) symbol,E. faecalis 211 (Tet M); doxy alone 12.5 μg/ml,+
same,growth / no growth (MIC) / killing (MLC) symbol,E. faecalis 211 (Tet M); doxy alone 25 μg/ml,↓
same,MIC/MLC chart: growth or killing,E. faecalis 211 (Tet M); [8],+
same,MIC/MLC chart: growth or killing,E. faecalis 211 (Tet M); [9],+
same,MIC/MLC chart: growth or killing,E. faecalis 211 (Tet M); [10],+
same,MIC/MLC chart: growth or killing,E. faecalis 211 (Tet M); [11],+
CC1c2cccc(O)c2C(=O)C2=C(O)C3(O)C(=O)C(C(N)=O)=C(O)[C@@H](N(C)C)C3[C@@H](OC(=O)CCC(=O)O)C21 (some centres unmarked) [Cmpd 6],IC50,[1],2 µM
6-deoxy-13-(benzyl mercapto) tetracycline,MIC,[2]; 1st column,16 ± 6 µg
same,MIC,[2]; 2nd column,26 ± 6 µg
same,MIC,[3]; 1st column,46 ± 20 µg
same,MIC,[3]; 2nd column,160 ± 60 µg
same,MIC,[4]; 1st column,30 ± 0.26 µg
same,MIC,[4]; 2nd column,60 ± 10 µg
same,MIC,S. aureus Tc^s (RN450),0.2 ± 0.1 µg
same,MLC,S. aureus Tc^s (RN450),10 ± 2 µg
same,MIC,[5]; 1st column,0.6 ± 0.25 µg
same,MIC,[5]; 2nd column,8 ± 0.26 µg
same,MLC,[6],8 ± 2 µg/mL
same,MIC,[6]; 1st column,0.76 ± 0.26 µg
same,MIC,[7]; 1st column,3.6 ± 1 µg
same,synergistic activity with tetracycline,E. faecalis (Tet M),"little, if any synergistic activity"
6-deoxy-13-(cyclopentyl mercapto) tetracycline,MIC,[2]; 1st column,20 µg
same,MIC,[2]; 2nd column,60 µg
same,MIC,[3]; 1st column,40 ± 0.26 µg
same,MIC,[3]; 2nd column,60 µg
same,MIC,[4]; 1st column,60 ± 40 µg
same,MIC,[4]; 2nd column,100 ± 60 µg
same,MIC,S. aureus Tc^s (RN450),1 µg
same,MLC,S. aureus Tc^s (RN450),5 µg
same,MLC,S. aureus Tc^r (RN4250); resistant S. aureus,6 ± 2 µg/mL
same,MIC,[5]; 1st column,1 ± 0.26 µg
same,MIC,[5]; 2nd column,10 ± 4 µg
same,MIC,[6]; 1st column,1 ± 0.6 µg
same,MIC,[7]; 1st column,3 ± 1 µg
same,synergistic activity with tetracycline,E. faecalis (Tet M),"little, if any synergistic activity"
6-deoxy-13-(cyclohexyl mercapto) tetracycline,MIC,[2]; 1st column,60 ± 10 µg
same,MIC,[2]; 2nd column,120 µg
same,MIC,[3]; 1st column,100 ± 0.26 µg
same,MIC,[3]; 2nd column,>200 µg
same,MIC,S. aureus Tc^s (RN450),2.5 ± 1.25 µg
same,MLC,S. aureus Tc^s (RN450),10 ± 5 µg
same,MIC,[5]; 1st column,1.26 ± 0.26 µg
same,MIC,[5]; 2nd column,8 µg
same,MLC,[6],8 ± 2 µg/mL
same,MIC,[6]; 1st column,1.6 ± 0.6 µg
same,MIC,[7]; 1st column,2.6 ± 0.6 µg
same,synergistic activity with tetracycline,E. faecalis (Tet M),"little, if any synergistic activity"
"C=C1c2cccc(O)c2C(=O)C2=C(O)C3(O)C(=O)C(C(N)=O)=C(O)C(N(C)C)C3C(OC(=O)C3CC3)C12 (centres unmarked) [Cmpd 11, 5 cyclopropanoate methacycline]",IC50,[1],9.4 µM
CC1c2cccc(O)c2C(=O)C2=C(O)C3(O)C(=O)C(C(N)=O)=C(O)[C@@H](N(C)C)C3[C@@H](OCCCN)C21 (some centres unmarked) [Cmpd 7],IC50,[1]; [12],6.4 µM
CN(C)[C@@H]1C(O)=C(C(N)=O)C(=O)C2(O)C(O)=C3C(=O)c4c(O)cccc4C(CSC4CCCC4)C3[C@H](OC(=O)C3CCCC3)C12 (some centres unmarked) [Cmpd 10],IC50,[1]; [12],> 30 µM
CCCCCCCC(=O)O[C@H]1C2C(=C(O)C3(O)C(=O)C(C(N)=O)=C(O)[C@@H](N(C)C)C13)C(=O)c1c(O)cccc1C2C (some centres unmarked) [Cmpd 4],IC50,[1],9.3 µM
